Data taken from patent publication US20110045100A1, “Antimalarial Quinolines and Methods of Use Thereof” (GEORGETOWN UNIVERSITY, priority 2008, published 2011).

Key:
[1] = tested on: Dd2 (chloroquine resistant strain of P. falciparum); assay: SYBR Green I antiplasmodial assay, strain Dd2; format: cell-based, Plasmodium falciparum; details: for activity against the CQ resistant strain Dd2 in comparison with CQ: compared with CQ
From the text: (§1) Bennett T. N.; Paguio, M.; Gligorijevic, B.; Seudieu, C.; Kosar, A. D.; Davidson, E.; Roepe, P. D. Novel, rapid, and inexpensive cell-based quantification of antimalarial drug efficacy. Antimicrob. Agents Chemother. 2004, 48, 1807-1810; Smilkstein, M.; Sriwilaijaroen, N.; Kelly, J. X.; Wilairat, P.; Riscoe, M. Simple and inexpensive fluorescence-based technique for high-throughput antimalarial drug screening. Antimicrob. Agents Chemother. 2004, 48, 1803-1806; and Johnson, J. D.; Dennull, R. A.; Gerena, L.; Lopez-Sanchez, M.; Roncal, N. E.; Waters, N.C. Assessment and continued validation of the malaria SYBR green I-based fluorescence assay for use in malaria drug screening. Antimicrob. Agents Chemother. 2007, 51, 1926-1933. […] Drake, N. L.; Creech, H. J.; Garman, J. A.; Haywood, S. T.; Peck, R. M.; van Hook, J. O.; Walton, E. Synthetic antimalrials. The preparation of certain 4-aminoquinolines. J. Am. Chem. Soc. […] Trans. R. Soc. Trop. Med. Hyg. […] J. Parasitol. 1983, 69, 97-105. The selectivity index provides a quantitative measure of the antimalarial activity against CQR strains relative to that against sensitive strains and thus indicates promising drug discovery leads. […] This can be combined with the introduction of a third basic amino function which should further favor accumulation of the drug within the acidic food vacuole of the parasite.
The antiplasmodial activity of these compounds was measured versus a CQS (HB3) and a CQR (Dd2) strain using a standardized, inexpensive assay based on SYBR Green I intercalation. Bennett T. N.; Paguio, M.; Gligorijevic, B.; Seudieu, C.; Kosar, A. D.; Davidson, E.; Roepe, P. D. Antimicrob. Agents Chemother. 2004, 48, 1807-1810; Smilkstein, M.; Sriwilaijaroen, N.; Kelly, J. X.; Wilairat, P.; Riscoe, M. Antimicrob. Agents Chemother. 2004, 48, 1803-1806; and Johnson, J. D.; Dennull, R. A.; Gerena, L.; Lopez-Sanchez, M.; Roncal, N. E.; Waters, N.C. Antimicrob. Agents Chemother. 2007, 51, 1926-1933. […] De, D.; Krogstad, F. M.; Cogswell, F. B.; Krogstad, D. J. Am. J. Trop. Med. Hyg. 1996, 55, 579-583. […] The basic tertiary amino function in the side chain is commonly believed to be crucial for the accumulation of the drug within the acidic food DV.
(§2) Drug activities were assessed and IC50 were quantified essentially as described previously. Delarue, S.; Girault, S.; Maes, L.; Debreu-Fontaine, M. A.; Labaeid, M.; Grellier, P.; Sergheraert, C. Synthesis and in vitro and in vivo antimalarial activity of new 4-anilinoquinolines. J. Med. Chem. 2001, 44, 2827-2833; and O'Neill, P. M.; Willock, D. J.; Hawley, S. R.; Bray, P. G.; Storr, R. C.; Ward, S. A.; Park, B. K. Synthesis, antimalarial activity, and molecular modeling of tebuquine analogues. J. Med. Chem. 1997, 40, 437-448. The aminoquinolines were diluted using complete media under sterile conditions and plated in a 96 well plate format. Sorbitol synchronized cultures were utilized with >95% of the parasites at the ring stage. Cultures were diluted to give a working stock of 0.5% parasitemia and 2% hematocrit (final hematocrit 1% & 0.5% Parasitemia). The plates were incubated for 72 h at 37° C. After 72 h, 50 μL of 10×SYBR green I dye was added to each well, and the plate was incubated for 1 h at 37° C. Fluorescence was measured at 530 nm (490 nm excitation) using a spectra geminiEM plate reader. Data analysis was performed using sigma plot 9.0 software after downloading data in Excel format.

[2] = tested on: CQS and CQR strains of P. falciparum; details: cited from earlier work; for antimalarial activity against certain CQS and CQR strains relative to chloroquine, reported by Jensen: diastereomeric mixtures
[3] = tested on: CQS (HB3, GCO3) and CQR (Dd2, FCB) strains of P. falciparum; assay: SYBR Green I antiplasmodial assay, several CQS and CQR strains; format: cell-based, Plasmodium falciparum; details: for activity vs. both CQR and CQS strains relative to 93: FIG. 23
From the text: as §1
Bennett T. N.; Paguio, M.; Gligorijevic, B.; Seudieu, C.; Kosar, A. D.; Davidson, E.; Roepe, P. D. Novel, rapid, and inexpensive cell-based quantification of antimalarial drug efficacy. Antimicrob. Agents Chemother. 2004, 48, 1807-1810; Smilkstein, M.; Sriwilaijaroen, N.; Kelly, J. X.; Wilairat, P.; Riscoe, M. Simple and inexpensive fluorescence-based technique for high-throughput antimalarial drug screening. Antimicrob. Agents Chemother. 2004, 48, 1803-1806; and Johnson, J. D.; Dennull, R. A.; Gerena, L.; Lopez-Sanchez, M.; Roncal, N. E.; Waters, N.C. Assessment and continued validation of the malaria SYBR green I-based fluorescence assay for use in malaria drug screening. Antimicrob. Agents Chemother. 2007, 51, 1926-1933.
Drug activities were assessed and IC50 were quantified essentially as described previously. Delarue, S.; Girault, S.; Maes, L.; Debreu-Fontaine, M. A.; Labaeid, M.; Grellier, P.; Sergheraert, C. Synthesis and in vitro and in vivo antimalarial activity of new 4-anilinoquinolines. J. Med. Chem. 2001, 44, 2827-2833; and O'Neill, P. M.; Willock, D. J.; Hawley, S. R.; Bray, P. G.; Storr, R. C.; Ward, S. A.; Park, B. K. Synthesis, antimalarial activity, and molecular modeling of tebuquine analogues. J. Med. Chem. 1997, 40, 437-448.

[4] = tested on: FCB (CQR strain of P. falciparum); assay: SYBR Green I antiplasmodial assay, strain FCB; format: cell-based, Plasmodium falciparum; details: compared with CQ
From the text: as §1, §2

| SMILES | activity against the CQ resistant strain Dd2 in comparison with CQ [1] | potency against FCB in comparison with CQ [4] | further results |
| --- | --- | --- | --- |
| CCNC1CCCC(N(CC)c2ccnc3cc(Cl)ccc23)C1 (centres unmarked) [16a, N-(7-Chloro-4-quinolyl)-N,N′-diethyl-1,3-diaminocyclohexane] | clearly superior activity | – | antimalarial activity against certain CQS and CQR strains relative to chloroquine, reported by Jensen [2]: higher antimalarial activity |
| CCN(CCNc1ccnc2cc(Cl)ccc12)CCNS(=O)(=O)c1cccc2cccnc12 [compound 33] | – | – | activity against Dd2 in words [1]: relatively high activity |
| CCN(CC)CCCNc1ccnc2cc(Cl)ccc12 [compound 87, N-(7-Chloro-4-quinolyl)-N′,N′-diethyl-1,3-diaminopropane] | – | – | IC50 vs. CQR strains, earlier reports [2]: substantially lower IC50 |
| CCN(CC)CC(CN(CC)CC)Oc1ccnc2cc(Cl)ccc12 [compound 101, 7-Chloro-4-(1′,3′-bis(diethylamino)-2′-propoxy)quinoline] | – | – | activity vs. both CQR and CQS strains relative to 93 [3]: significantly less active |
| CCN(CC)CCCN(CC)CCCCCNc1ccnc2cc(Cl)ccc12 [5d, N-(7-Chloro-4-quinolyl)-N-ethyl-N-(3-diethylaminopropyl)-1,5-diaminopentane] | clearly superior activity | significantly more potent | – |
| CCN(CC)CCCN(CCCN)c1ccnc2cc(Cl)ccc12 [4b, N-(7-Chloro-4-quinolyl)-N-(3-diethylaminopropyl)-1,3-diaminopropane] | clearly superior activity | significantly more potent | – |
| CCNCCNc1ccnc2cc(Cl)ccc12 [compound 81, N-(7-Chloro-4-quinolyl)-N′-ethyl-1,2-diaminoethane] | – | – | IC50 vs. CQR strains, earlier reports [2]: high IC50 |
| CCNCCCC(C)Nc1ccnc2cc(Cl)ccc12 (centres unmarked) [desethyl CQ, reference compound] | – | – | activity vs. some CQR strains relative to CQ, previous studies ([2]; some CQR strains): lower activity |
| CC(C)NC1CCC(Nc2ccnc3cc(Cl)ccc23)CC1 (centres unmarked) [17b, N-(7-Chloro-4-quinolyl)-N′-isopropyl-1,4-diaminocyclohexane] | clearly superior activity | significantly more potent | – |
| CCN(CC)CCCCCOc1ccnc2cc(Cl)ccc12 [compound 94, O-(7-Chloro-4-quinolyl)-5-(N,N-diethylamino)pentanol] | – | – | IC50 ([3]; Plasmodium falciparum, read-out: IC50 vs. CQR parasites): ~1000 nM |
| CCNCCCNc1ccnc2cc(Cl)ccc12 [compound 82, N-(7-Chloro-4-quinolyl)-N′-ethyl-1,3-diaminopropane] | – | – | IC50 vs. CQR strains, earlier reports [2]: high IC50 |
| CC(C)NC1CCCC(Nc2ccnc3cc(Cl)ccc23)C1 (centres unmarked) [16b, N-(7-Chloro-4-quinolyl)-N′-isopropyl-1,3-diaminocyclohexane] | clearly superior activity | – | – |
| NCCCN(C(=O)c1ccc(F)cc1NCc1ccccc1)c1ccnc2cc(Cl)ccc12 [compound 53, N-(7-Chloro-4-quinolyl)-N-(2-benzylamino-4-fluorobenzoyl)-1,3-diaminopropane] | – | – | activity against Dd2 compared with HB3 [1]: significantly more active against Dd2 than HB3 |
| CCN(CC)CCCN(CC)CCNc1ccnc2cc(Cl)ccc12 [5a, N-(7-Chloro-4-quinolyl)-N-ethyl-N-(3-diethylaminopropyl)-1,2-diaminoethane] | clearly superior activity | significantly more potent | – |
| CCN(CC)CCCN(CC)CCCNc1ccnc2cc(Cl)ccc12 [5b, N-(7-Chloro-4-quinolyl)-N-ethyl-N-(3-diethylaminopropyl)-1,3-diaminopropane] | clearly superior activity | significantly more potent | – |
| CCN(CC)CCCCC(CCCCN(CC)CC)Oc1ccnc2cc(Cl)ccc12 [compound 103, 7-Chloro-4-(1′,9′-bis(diethylamino)-5′-nonoxy)quinoline] | – | – | activity vs. both CQR and CQS strains relative to 93 [3]: improved activity |
| CCNC1CCC(N(CC)c2ccnc3cc(Cl)ccc23)CC1 (centres unmarked) [17a, N-(7-Chloro-4-quinolyl)-N,N′-diethyl-1,4-diaminocyclohexane] | clearly superior activity | significantly more potent | antimalarial activity against certain CQS and CQR strains relative to chloroquine, reported by Jensen [2]: higher antimalarial activity |
| CCN(CC)CCNc1ccnc2cc(Cl)ccc12 [compound 86, N-(7-Chloro-4-quinolyl)-N′,N′-diethyl-1,2-diaminoethane] | – | – | IC50 vs. CQR strains, earlier reports [2]: substantially lower IC50 |
